Data published in ChEMBL document CHEMBL3885881, “DrugMatrix”.

Organism: Rattus norvegicus
Assay: DrugMatrix - Regimen: Daily Repeat
Type: toxicity, organism-based, Sprague-Dawley
Design: regimen Daily Repeat, gender Male, age 6-8 weeks
Conditions: in vivo, po, route oral GAVAGE, vehicle 100 % WATER; for ABSOLUTE BASOPHIL / ABSOLUTE EOSINOPHIL / ABSOLUTE LYMPHOCYTE / ABSOLUTE MONOCYTE / ABSOLUTE SEGMENTED NEUTROPHIL / BASOPHIL / EOSINOPHIL / ERYTHROCYTE COUNT / HEMATOCRIT / HEMOGLOBIN / LEUKOCYTE COUNT / LYMPHOCYTE / MEAN CORPUSCULAR HEMOGLOBIN / MEAN CORPUSCULAR HEMOGLOBIN CONCENTRATION / MEAN CORPUSCULAR VOLUME / MONOCYTE / NEUTROPHIL / NUCLEATED RED BLOOD CELLS / PLATELET COUNT: tissue Blood; for ALANINE AMINOTRANSFERASE / ALBUMIN / ALKALINE PHOSPHATASE / ASPARTATE AMINOTRANSFERASE / BLOOD UREA NITROGEN / CARBON DIOXIDE / CHLORIDE / CHOLESTEROL / CREATINE PHOSPHOKINASE / CREATININE / GLUCOSE / LACTATE DEHYDROGENASE / LIPASE / PHOSPHORUS / POTASSIUM / SODIUM / TOTAL BILIRUBIN / TOTAL PROTEIN / URIC ACID: tissue Plasma
[1] = 110 mg/kg, 72 h, dose level Low, time 3 day
[2] = 110 mg/kg, 120 h, dose level Low, time 5 day
[3] = 400 mg/kg, 72 h, dose level High, time 3 day
[4] = 400 mg/kg, 120 h, dose level High, time 5 day

CCOC(=O)n1ccn(C)c1=S [CARBIMAZOLE]
ABSOLUTE BASOPHIL [1]: 0 CELLS/uL
ABSOLUTE EOSINOPHIL [1]: 15.67 CELLS/uL
ABSOLUTE LYMPHOCYTE [1]: 5022.67 CELLS/uL
ABSOLUTE MONOCYTE [1]: 37.33 CELLS/uL
ABSOLUTE SEGMENTED NEUTROPHIL [1]: 357.67 CELLS/uL
BASOPHIL [1]: 0%
EOSINOPHIL [1]: 0.33%
ERYTHROCYTE COUNT [1]: 5.37 x10E6/uL
HEMATOCRIT [1]: 33.5%
HEMOGLOBIN [1]: 13.37 G/DL
LEUKOCYTE COUNT [1]: 5.43 x10E3/uL
LYMPHOCYTE [1]: 92%
MEAN CORPUSCULAR HEMOGLOBIN [1]: 24.9 pg
MEAN CORPUSCULAR HEMOGLOBIN CONCENTRATION [1]: 39.9 G/DL
MEAN CORPUSCULAR VOLUME [1]: 62.43 fL
MONOCYTE [1]: 0.67%
NEUTROPHIL [1]: 7%
NUCLEATED RED BLOOD CELLS [1]: 0 /100WBC
PLATELET COUNT [1]: 1166.67 x10E3/uL
ALANINE AMINOTRANSFERASE [1]: 39.33 u/L
ALBUMIN [1]: 4.23 G/DL
ALKALINE PHOSPHATASE [1]: 314 u/L
ASPARTATE AMINOTRANSFERASE [1]: 65.33 u/L
BLOOD UREA NITROGEN [1]: 19.33 mg/dL
CARBON DIOXIDE [1]: 29.33 mmol/L
CHLORIDE [1]: 102 MEQ/L
CHOLESTEROL [1]: 81.67 mg/dL
CREATINE PHOSPHOKINASE [1]: 137 u/L
CREATININE [1]: 0.2 mg/dL
GLUCOSE [1]: 129.33 mg/dL
LACTATE DEHYDROGENASE [1]: 155 u/L
LIPASE [1]: 9.33 u/L
PHOSPHORUS [1]: 10.27 mg/dL
POTASSIUM [1]: 6.06 MEQ/L
SODIUM [1]: 147.63 MEQ/L
TOTAL BILIRUBIN [1]: 0.2 mg/dL
TOTAL PROTEIN [1]: 6 G/DL
URIC ACID [1]: 0.7 mg/dL
ABSOLUTE BASOPHIL [2]: 0 CELLS/uL
ABSOLUTE EOSINOPHIL [2]: 0 CELLS/uL
ABSOLUTE LYMPHOCYTE [2]: 14370.67 CELLS/uL
ABSOLUTE MONOCYTE [2]: 96 CELLS/uL
ABSOLUTE SEGMENTED NEUTROPHIL [2]: 766.67 CELLS/uL
BASOPHIL [2]: 0%
EOSINOPHIL [2]: 0%
ERYTHROCYTE COUNT [2]: 6.23 x10E6/uL
HEMATOCRIT [2]: 38.1%
HEMOGLOBIN [2]: 14.73 G/DL
LEUKOCYTE COUNT [2]: 15.23 x10E3/uL
LYMPHOCYTE [2]: 94%
MEAN CORPUSCULAR HEMOGLOBIN [2]: 23.67 pg
MEAN CORPUSCULAR HEMOGLOBIN CONCENTRATION [2]: 38.73 G/DL
MEAN CORPUSCULAR VOLUME [2]: 61.13 fL
MONOCYTE [2]: 0.67%
NEUTROPHIL [2]: 5.33%
NUCLEATED RED BLOOD CELLS [2]: 0 /100WBC
PLATELET COUNT [2]: 998 x10E3/uL
ALANINE AMINOTRANSFERASE [2]: 56.67 u/L
ALBUMIN [2]: 4.53 G/DL
ALKALINE PHOSPHATASE [2]: 416.67 u/L
ASPARTATE AMINOTRANSFERASE [2]: 76.67 u/L
BLOOD UREA NITROGEN [2]: 19 mg/dL
CARBON DIOXIDE [2]: 23.33 mmol/L
CHLORIDE [2]: 103 MEQ/L
CHOLESTEROL [2]: 83 mg/dL
CREATINE PHOSPHOKINASE [2]: 286 u/L
CREATININE [2]: 0.2 mg/dL
GLUCOSE [2]: 154 mg/dL
LACTATE DEHYDROGENASE [2]: 175.67 u/L
LIPASE [2]: 9.67 u/L
PHOSPHORUS [2]: 12.53 mg/dL
POTASSIUM [2]: 6.34 MEQ/L
SODIUM [2]: 148.13 MEQ/L
TOTAL BILIRUBIN [2]: 0.2 mg/dL
TOTAL PROTEIN [2]: 6.87 G/DL
URIC ACID [2]: 1.97 mg/dL
ABSOLUTE BASOPHIL [3]: 0 CELLS/uL
ABSOLUTE EOSINOPHIL [3]: 0 CELLS/uL
ABSOLUTE LYMPHOCYTE [3]: 9627.33 CELLS/uL
ABSOLUTE MONOCYTE [3]: 0 CELLS/uL
ABSOLUTE SEGMENTED NEUTROPHIL [3]: 872.67 CELLS/uL
BASOPHIL [3]: 0%
EOSINOPHIL [3]: 0%
ERYTHROCYTE COUNT [3]: 5.66 x10E6/uL
HEMATOCRIT [3]: 35.3%
HEMOGLOBIN [3]: 14.1 G/DL
LEUKOCYTE COUNT [3]: 10.5 x10E3/uL
LYMPHOCYTE [3]: 91.67%
MEAN CORPUSCULAR HEMOGLOBIN [3]: 24.9 pg
MEAN CORPUSCULAR HEMOGLOBIN CONCENTRATION [3]: 40.03 G/DL
MEAN CORPUSCULAR VOLUME [3]: 62.3 fL
MONOCYTE [3]: 0%
NEUTROPHIL [3]: 8.33%
NUCLEATED RED BLOOD CELLS [3]: 0 /100WBC
PLATELET COUNT [3]: 1182.33 x10E3/uL
ALANINE AMINOTRANSFERASE [3]: 38.33 u/L
ALBUMIN [3]: 4.2 G/DL
ALKALINE PHOSPHATASE [3]: 421 u/L
ASPARTATE AMINOTRANSFERASE [3]: 56 u/L
BLOOD UREA NITROGEN [3]: 12.67 mg/dL
CARBON DIOXIDE [3]: 25.67 mmol/L
CHLORIDE [3]: 101.67 MEQ/L
CHOLESTEROL [3]: 82 mg/dL
CREATINE PHOSPHOKINASE [3]: 338 u/L
CREATININE [3]: 0.17 mg/dL
GLUCOSE [3]: 149 mg/dL
LACTATE DEHYDROGENASE [3]: 171 u/L
LIPASE [3]: 9.67 u/L
PHOSPHORUS [3]: 11.57 mg/dL
POTASSIUM [3]: 6.88 MEQ/L
SODIUM [3]: 143.1 MEQ/L
TOTAL BILIRUBIN [3]: 0.2 mg/dL
TOTAL PROTEIN [3]: 5.97 G/DL
URIC ACID [3]: 1.73 mg/dL
ABSOLUTE BASOPHIL [4]: 0 CELLS/uL
ABSOLUTE EOSINOPHIL [4]: 0 CELLS/uL
ABSOLUTE LYMPHOCYTE [4]: 9558.67 CELLS/uL
ABSOLUTE MONOCYTE [4]: 45.33 CELLS/uL
ABSOLUTE SEGMENTED NEUTROPHIL [4]: 1996 CELLS/uL
BASOPHIL [4]: 0%
EOSINOPHIL [4]: 0%
ERYTHROCYTE COUNT [4]: 5.99 x10E6/uL
HEMATOCRIT [4]: 37.23%
HEMOGLOBIN [4]: 15.17 G/DL
LEUKOCYTE COUNT [4]: 11.6 x10E3/uL
LYMPHOCYTE [4]: 82.33%
MEAN CORPUSCULAR HEMOGLOBIN [4]: 25.33 pg
MEAN CORPUSCULAR HEMOGLOBIN CONCENTRATION [4]: 40.73 G/DL
MEAN CORPUSCULAR VOLUME [4]: 62.13 fL
MONOCYTE [4]: 0.33%
NEUTROPHIL [4]: 17.33%
NUCLEATED RED BLOOD CELLS [4]: 0 /100WBC
PLATELET COUNT [4]: 1416 x10E3/uL
ALANINE AMINOTRANSFERASE [4]: 37.33 u/L
ALBUMIN [4]: 3.73 G/DL
ALKALINE PHOSPHATASE [4]: 235 u/L
ASPARTATE AMINOTRANSFERASE [4]: 30.33 u/L
BLOOD UREA NITROGEN [4]: 19 mg/dL
CARBON DIOXIDE [4]: 20.67 mmol/L
CHLORIDE [4]: 105.33 MEQ/L
CHOLESTEROL [4]: 80 mg/dL
CREATINE PHOSPHOKINASE [4]: 198 u/L
CREATININE [4]: 0.16 mg/dL
GLUCOSE [4]: 124.67 mg/dL
LACTATE DEHYDROGENASE [4]: 434.67 u/L
LIPASE [4]: 9.33 u/L
PHOSPHORUS [4]: 11.57 mg/dL
POTASSIUM [4]: 6.35 MEQ/L
SODIUM [4]: 144.43 MEQ/L
TOTAL BILIRUBIN [4]: 0.17 mg/dL
TOTAL PROTEIN [4]: 5.8 G/DL
URIC ACID [4]: 1.57 mg/dL
